Assay results reported in patent US9365522B2, “Pyrazole amide derivative” (AMGEN INC., priority 2015, dated 2016).

Biological target: T1, human RORγ-LBD (Homo sapiens, UniProt P51449)
T1 construct: made in house; host or cells: E. coli (BL-21)
T1 sequence (P51449 262-518): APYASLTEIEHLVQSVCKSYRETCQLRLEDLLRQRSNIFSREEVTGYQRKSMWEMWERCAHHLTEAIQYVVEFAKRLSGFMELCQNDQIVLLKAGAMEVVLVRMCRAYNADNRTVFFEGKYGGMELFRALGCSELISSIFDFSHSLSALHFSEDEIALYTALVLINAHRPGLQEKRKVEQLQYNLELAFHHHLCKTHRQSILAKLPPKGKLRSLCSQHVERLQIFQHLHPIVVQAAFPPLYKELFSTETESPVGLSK
Test: ROR gamma coactivator peptide recruitment Alphascreen assay (RORγ-LBD binding to GRIP1 coactivator peptide)
Format: biochemical
Settings: 5 nM human RORγ-LBD, 30 nM 7-β-hydroxycholesterol, 50 nM biotinylated GRIP1 coactivator peptide, overnight incubation at room temperature; read-out: result (pIC50, RORγ coactivator peptide recruitment Alphascreen assay) (converted)
Outline: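 His/Flag-tagged human RORγ-LBD (aa 262-518, E. coli-expressed, 5 nM) with agonist 7-β-hydroxycholesterol (30 nM) and biotinylated GRIP1 LXXLL peptide (50 nM) in HEPES pH 7.4 buffer, 2.5% DMSO. Compound 1-in-2 dilutions; Alphascreen bead signal read after overnight incubation at room temperature; pIC50 calculated.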

Q: Which IC50 does the source give for `CC1(C)CC(CN(CC(=O)c2c(F)cccc2F)C(=O)c2cnn([C@H]3CC[C@@H](C(=O)O)CC3)c2C(F)(F)F)C1` [Example 597, cis-4-(4-((2-(2,6-difluorophenyl)-2-oxoethyl)((3,3-dimethylcyclobutyl)methyl)carbamoyl)-5-(trifluoromethyl)-1H-pyrazol-1-yl)cyclohexanecarboxylic acid] here?
A: 2400 nM

Q: `CC1(C)CC(CN(CC(=O)c2c(F)cccc2F)C(=O)c2cnn([C@H]3CC[C@](C)(C(=O)O)CC3)c2C(F)(F)F)C1` [Example 598, trans-4-(4-((2-(2,6-difluorophenyl)-2-oxoethyl)((3,3-dimethylcyclobutyl)methyl)carbamoyl)-5-(trifluoromethyl)-1H-pyrazol-1-yl)-1-methylcyclohexanecarboxylic acid] was tested. Which IC50 did it give?
A: 115 nM

Q: Which IC50 does the source give for `CC1(C)CC(N(CC(=O)c2c(Cl)cccc2Cl)C(=O)c2cnn([C@H]3CC[C@](C)(C(=O)O)CC3)c2C(F)(F)F)C1` [Example 599, trans-4-(4-((2-(2,6-dichlorophenyl)-2-oxoethyl)(3,3-dimethylcyclobutyl)carbamoyl)-5-(trifluoromethyl)-1H-pyrazol-1-yl)-1-methylcyclohexanecarboxylic acid] here?
A: 13.8 nM

Q: Which IC50 does the source give for `CC1(C)CC(N(CC(=O)c2c(Cl)cccc2Cl)C(=O)c2cnn([C@H]3CC[C@@H](C(=O)O)CC3)c2C(F)(F)F)C1` [Example 600, cis-4-(4-((2-(2,6-dichlorophenyl)-2-oxoethyl)(3,3-dimethylcyclobutyl)carbamoyl)-5-(trifluoromethyl)-1H-pyrazol-1-yl)cyclohexanecarboxylic acid] here?
A: 794 nM

Q: For `CC1(C)C[C@H](CN(CC(=O)c2c(Cl)cccc2Cl)C(=O)c2cnn([C@H]3CC[C@](C)(C(=O)O)CC3)c2C(F)(F)F)O1` [Example 601, trans-4-(4-((2-(2,6-dichlorophenyl)-2-oxoethyl)(((2R)-4,4-dimethyl-2-oxetanyl)methyl)carbamoyl)-5-(trifluoromethyl)-1H-pyrazol-1-yl)-1-methylcyclohexanecarboxylic acid], which IC50 is on record?
A: 42.7 nM

Q: For `COc1cccc(F)c1C(=O)CN(CC1CC(C)(C)C1)C(=O)c1cnn([C@H]2CC[C@](C)(C(=O)O)CC2)c1C(F)(F)F` [Example 602, trans-4-(4-(((3,3-dimethylcyclobutyl)methyl)(2-(2-fluoro-6-methoxyphenyl)-2-oxoethyl)carbamoyl)-5-(trifluoromethyl)-1H-pyrazol-1-yl)-1-methylcyclohexanecarboxylic acid], which IC50 is on record?
A: 174 nM

Q: Which IC50 does the source give for `CC1(C)CC(CN(CC(=O)c2ccccc2C#N)C(=O)c2cnn([C@H]3CC[C@](C)(C(=O)O)CC3)c2C(F)(F)F)C1` [Example 604, trans-4-(4-((2-(2-cyanophenyl)-2-oxoethyl)((3,3-dimethylcyclobutyl)methyl)carbamoyl)-5-(trifluoromethyl)-1H-pyrazol-1-yl)-1-methylcyclohexanecarboxylic acid] here?
A: 6610 nM

Q: `CC(C)(C)C[C@H](CO)N(CCc1c(Cl)cccc1Cl)C(=O)c1cnn([C@H]2CC[C@](C)(C(=O)O)CC2)c1C(F)(F)F` [Example 605, trans-4-(4-((2-(2,6-dichlorophenyl)ethyl)((2R)-1-hydroxy-4,4-dimethyl-2-pentanyl)carbamoyl)-5-(trifluoromethyl)-1H-pyrazol-1-yl)-1-methylcyclohexanecarboxylic acid] was tested. Which IC50 did it give?
A: 151 nM

Q: Which IC50 does the source give for `C[C@]1(C(=O)O)CC[C@H](n2ncc(C(=O)N(CCc3c(Cl)cncc3Cl)CC3(F)CCCC3)c2C(F)(F)F)CC1` [Example 606, trans-4-(4-((2-(3,5-dichloro-4-pyridinyl)ethyl)((1-fluorocyclopentyl)methyl)carbamoyl)-5-(trifluoromethyl)-1H-pyrazol-1-yl)-1-methylcyclohexanecarboxylic acid] here?
A: 4.47 nM

Q: `COc1cccc(F)c1C(=O)CN(C(=O)c1cnn([C@H]2CC[C@](C)(C(=O)O)CC2)c1C(F)(F)F)C1CCC(C)(C)CC1` [Example 607, trans-4-(4-((4,4-dimethylcyclohexyl)(2-(2-fluoro-6-methoxyphenyl)-2-oxoethyl)carbamoyl)-5-(trifluoromethyl)-1H-pyrazol-1-yl)-1-methylcyclohexanecarboxylic acid] was tested. Which IC50 did it give?
A: 105 nM

Q: How did the IC50 turn out when `COc1cccc(F)c1C(=O)CN(CC1(F)CCCC1)C(=O)c1cnn([C@H]2CC[C@](C)(C(=O)O)CC2)c1C(F)(F)F` [Example 608, trans-4-(4-(((1-fluorocyclopentyl)methyl)(2-(2-fluoro-6-methoxyphenyl)-2-oxoethyl)carbamoyl)-5-(trifluoromethyl)-1H-pyrazol-1-yl)-1-methylcyclohexanecarboxylic acid] was run?
A: 123 nM

Q: Which IC50 does the source give for `CC1(C)[C@@H]2C[C@H](N(CC(=O)c3c(Cl)cccc3Cl)C(=O)c3cnn([C@H]4CC[C@H](C(=O)O)CC4)c3C(F)(F)F)C[C@@H]21` [Example 610, cis-4-(4-((2-(2,6-dichlorophenyl)-2-oxoethyl)((1R,3r,5S)-6,6-dimethylbicyclo[3.1.0]hex-3-yl)carbamoyl)-5-(trifluoromethyl)-1H-pyrazol-1-yl)cyclohexanecarboxylic acid] here?
A: 12.3 nM

Q: `C[C@]1(C(=O)O)CC[C@H](n2ncc(C(=O)N(CC(=O)c3c(Cl)cccc3Cl)CC3(F)CC3)c2C(F)(F)F)CC1` [Example 611, trans-4-(4-((2-(2,6-dichlorophenyl)-2-oxoethyl)((1-fluorocyclopropyl)methyl)carbamoyl)-5-(trifluoromethyl)-1H-pyrazol-1-yl)-1-methylcyclohexanecarboxylic acid] was tested. Which IC50 did it give?
A: 6.03 nM

Q: Which IC50 does the source give for `C[C@]12CC[C@](CN(CC(=O)c3c(Cl)cccc3Cl)C(=O)c3cnn([C@H]4CC[C@](C)(C(=O)O)CC4)c3C(F)(F)F)(CC1)C2` [Example 612, trans-4-(4-((2-(2,6-dichlorophenyl)-2-oxoethyl)(((1r,4r)-4-methylbicyclo[2.2.1]hept-1-yl)methyl)carbamoyl)-5-(trifluoromethyl)-1H-pyrazol-1-yl)-1-methylcyclohexanecarboxylic acid] here?
A: 39.8 nM

Q: How did the IC50 turn out when `O=C(CN(C(=O)c1cnn([C@H]2CC[C@@H](C(=O)O)CC2)c1C(F)(F)F)C1CC2(CCC2)C1)c1c(Cl)cccc1Cl` [Example 613, cis-4-(4-((2-(2,6-dichlorophenyl)-2-oxoethyl)(spiro[3.3]hept-2-yl)carbamoyl)-5-(trifluoromethyl)-1H-pyrazol-1-yl)cyclohexanecarboxylic acid] was run?
A: 110 nM

Q: How did the IC50 turn out when `C[C@H]1CC[C@H](CN(CC(=O)c2c(Cl)cncc2Cl)C(=O)c2cnn([C@H]3CC[C@](C)(C(=O)O)CC3)c2C(F)(F)F)O1` [Example 614, trans-4-(4-((2-(3,5-dichloro-4-pyridinyl)-2-oxoethyl)(((2R,5R)-5-methyltetrahydro-2-furanyl)methyl)carbamoyl)-5-(trifluoromethyl)-1H-pyrazol-1-yl)-1-methylcyclohexanecarboxylic acid] was run?
A: 53.7 nM

Q: How did the IC50 turn out when `C[C@]12CC[C@](CN(CC(=O)c3c(Cl)cccc3Cl)C(=O)c3cnn([C@H]4CC[C@@H](C(=O)O)CC4)c3C(F)(F)F)(CC1)C2` [Example 615, cis-4-(4-((2-(2,6-dichlorophenyl)-2-oxoethyl)(((1r,4r)-4-methylbicyclo[2.2.1]hept-1-yl)methyl)carbamoyl)-5-(trifluoromethyl)-1H-pyrazol-1-yl)cyclohexanecarboxylic acid] was run?
A: 49 nM

Q: How did the IC50 turn out when `CC1(C)CC[C@H]1N(CC(=O)c1c(Cl)cncc1Cl)C(=O)c1cnn([C@H]2CC[C@](C)(C(=O)O)CC2)c1C(F)(F)F` [Example 616, trans-4-(4-((2-(3,5-dichloro-4-pyridinyl)-2-oxoethyl)((1R)-2,2-dimethylcyclobutyl)carbamoyl)-5-(trifluoromethyl)-1H-pyrazol-1-yl)-1-methylcyclohexanecarboxylic acid] was run?
A: 33.9 nM

Q: For `CC1(C)CC[C@@H]1N(CC(=O)c1c(Cl)cncc1Cl)C(=O)c1cnn([C@H]2CC[C@](C)(C(=O)O)CC2)c1C(F)(F)F` [Example 617, trans-4-(4-((2-(3,5-dichloro-4-pyridinyl)-2-oxoethyl)((1S)-2,2-dimethylcyclobutyl)carbamoyl)-5-(trifluoromethyl)-1H-pyrazol-1-yl)-1-methylcyclohexanecarboxylic acid], which IC50 is on record?
A: 117 nM

Q: `C=CCC1(CC=C)C[C@H](Cc2c(Cl)cncc2Cl)N(C(=O)c2cnn([C@H]3CC[C@](C)(C(=O)O)CC3)c2C(F)(F)F)C1` [Example 618, trans-4-(4-(((2R)-2-((3,5-dichloro-4-pyridinyl)methyl)-4,4-di(2-propen-1-yl)-1-pyrrolidinyl)carbonyl)-5-(trifluoromethyl)-1H-pyrazol-1-yl)-1-methylcyclohexanecarboxylic acid] was tested. Which IC50 did it give?
A: 10.5 nM

Q: How did the IC50 turn out when `CC1(C)CC[C@H]1N(CC(=O)c1c(Cl)cccc1Cl)C(=O)c1cnn([C@H]2CC[C@](C)(C(=O)O)CC2)c1C(F)(F)F` [Example 619] was run?
A: 7.76 nM

Q: `CC1(C)CC[C@@H]1N(CC(=O)c1c(Cl)cccc1Cl)C(=O)c1cnn([C@H]2CC[C@](C)(C(=O)O)CC2)c1C(F)(F)F` [Example 620] was tested. Which IC50 did it give?
A: 38.9 nM

Q: How did the IC50 turn out when `O=C(c1cnn([C@H]2CC[C@@H](C(=O)O)CC2)c1C(F)(F)F)N(CCc1c(Cl)cncc1Cl)[C@@H]1CCC12CCC2` [Example 621, cis-4-(4-((2-(3,5-dichloro-4-pyridinyl)ethyl)((1R)-spiro[3.3]hept-1-yl)carbamoyl)-5-(trifluoromethyl)-1H-pyrazol-1-yl)cyclohexanecarboxylic acid] was run?
A: 302 nM
